# Values of other authors in patent US7705146B2, “Hepatitis C inhibitor peptide analogs” (Boehringer Ingelheim International GmbH, priority 2004, dated 2010).
# Test system: hepatitis C virus
# Settings: two day clinical trial, patients infected with the hepatitis C virus
structure (smiles),measurement,value
COc1ccc2c(O[C@@H]3C[C@H]4C(=O)N[C@]5(C(=O)O)C[C@H]5/C=C\CCCCC[C@H](NC(=O)OC5CCCC5)C(=O)N4C3)cc(-c3csc(NC(C)C)n3)nc2c1 [BILN 2061],reduction of viral loads in patients,effective in rapidly reducing viral loads
